Columns and labels:
Experiment in all cases: NCI single-dose screen (SRB)
Type in all cases: cell-based
COLO 205 = conditions: Homo sapiens; Colon Cancer COLO 205; 10^−5 M; read-out: Growth inhibition percentage
Method in brief: (§1)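 Read-out is percentage growth of treated cells relative to untreated controls, determined by SRB protein-dye staining and spectrophotometry. Cultures received test compound at 10^−5 M for 48 h, in three repeat experiments.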

SN12C = conditions: Homo sapiens; Renal Cancer SN12C; 10^−5 M; read-out: Growth inhibition percentage
Method in brief: as §1

HCT-15 = conditions: Homo sapiens; Colon Cancer HCT-15; 10^−5 M; read-out: Growth inhibition percentage
Method in brief: as §1

MDA-MB-468 = conditions: Homo sapiens; Breast Cancer MDA-MB-468; 10^−5 M; read-out: Growth inhibition percentage
Method in brief: as §1

OVCAR-5 = conditions: Homo sapiens; Ovarian Cancer OVCAR-5; 10^−5 M; read-out: Growth inhibition percentage
Method in brief: as §1

SF-295 = conditions: Homo sapiens; CNS Cancer SF-295; 10^−5 M; read-out: Growth inhibition percentage
Method in brief: as §1

UO-31 = conditions: Homo sapiens; Renal Cancer UO-31; 10^−5 M; read-out: Growth inhibition percentage
Method in brief: as §1

SK-MEL-28 = conditions: Homo sapiens; Melanoma SK-MEL-28; 10^−5 M; read-out: Growth inhibition percentage
Method in brief: as §1

UACC-257 = conditions: Homo sapiens; Melanoma UACC-257; 10^−5 M; read-out: Growth inhibition percentage
Method in brief: as §1

SNB-75 = conditions: Homo sapiens; CNS Cancer SNB-75; 10^−5 M; read-out: Growth inhibition percentage
Method in brief: as §1

MDA-MB-231/ATCC = conditions: Homo sapiens; Breast Cancer MDA-MB-231/ATCC; 10^−5 M; read-out: Growth inhibition percentage
Method in brief: as §1

SW-620 = conditions: Homo sapiens; Colon Cancer SW-620; 10^−5 M; read-out: Growth inhibition percentage
Method in brief: as §1

SF-268 = conditions: Homo sapiens; CNS Cancer SF-268; 10^−5 M; read-out: Growth inhibition percentage
Method in brief: as §1

HCT-116 = conditions: Homo sapiens; Colon Cancer HCT-116; 10^−5 M; read-out: Growth inhibition percentage
Method in brief: as §1

MDA-MB-435 = conditions: Homo sapiens; Melanoma MDA-MB-435; 10^−5 M; read-out: Growth inhibition percentage
Method in brief: as §1

EKVX = conditions: Homo sapiens; Non-Small-Cell Lung Cancer EKVX; 10^−5 M; read-out: Growth inhibition percentage
Method in brief: as §1

U251 = conditions: Homo sapiens, U-251; CNS Cancer U251; 10^−5 M; read-out: Growth inhibition percentage
Method in brief: as §1

SR = conditions: Homo sapiens; Leukemia SR; 10^−5 M; read-out: Growth inhibition percentage
Method in brief: as §1

ACHN = conditions: Homo sapiens; Renal Cancer ACHN; 10^−5 M; read-out: Growth inhibition percentage
Method in brief: as §1

SK-OV-3 = conditions: Homo sapiens; Ovarian Cancer SK-OV-3; 10^−5 M; read-out: Growth inhibition percentage
Method in brief: as §1

OVCAR-8 = conditions: Homo sapiens; Ovarian Cancer OVCAR-8; 10^−5 M; read-out: Growth inhibition percentage
Method in brief: as §1

LOX IMVI = conditions: Homo sapiens; Melanoma LOX IMVI; 10^−5 M; read-out: Growth inhibition percentage
Method in brief: as §1

RPMI-8226 = conditions: Homo sapiens; Leukemia RPMI-8226; 10^−5 M; read-out: Growth inhibition percentage
Method in brief: as §1

NCI/ADR-RES = conditions: Homo sapiens; Ovarian Cancer NCI/ADR-RES; 10^−5 M; read-out: Growth inhibition percentage
Method in brief: as §1

NCI-H522 = conditions: Homo sapiens; Non-Small-Cell Lung Cancer NCI-H522; 10^−5 M; read-out: Growth inhibition percentage
Method in brief: as §1

IGROV1 = conditions: Homo sapiens, IGROV-1; Ovarian Cancer IGROV1; 10^−5 M; read-out: Growth inhibition percentage
Method in brief: as §1

HOP-92 = conditions: Homo sapiens; Non-Small-Cell Lung Cancer HOP-92; 10^−5 M; read-out: Growth inhibition percentage
Method in brief: as §1

KM12 = conditions: Homo sapiens; Colon Cancer KM12; 10^−5 M; read-out: Growth inhibition percentage
Method in brief: as §1

M14 = conditions: Homo sapiens; Melanoma M14; 10^−5 M; read-out: Growth inhibition percentage
Method in brief: as §1

DU-145 = conditions: Homo sapiens; Prostate Cancer DU-145; 10^−5 M; read-out: Growth inhibition percentage
Method in brief: as §1

Row | SMILES | inhibition at 10 µM (COLO 205) [%] | inhibition at 10 µM (SN12C) [%] | inhibition at 10 µM (HCT-15) [%] | inhibition at 10 µM (MDA-MB-468) [%] | inhibition at 10 µM (OVCAR-5) [%] | inhibition at 10 µM (SF-295) [%] | inhibition at 10 µM (UO-31) [%] | inhibition at 10 µM (SK-MEL-28) [%] | inhibition at 10 µM (UACC-257) [%] | inhibition at 10 µM (SNB-75) [%] | inhibition at 10 µM (MDA-MB-231/ATCC) [%] | inhibition at 10 µM (SW-620) [%] | inhibition at 10 µM (SF-268) [%] | inhibition at 10 µM (HCT-116) [%] | inhibition at 10 µM (MDA-MB-435) [%] | inhibition at 10 µM (EKVX) [%] | inhibition at 10 µM (U251) [%] | inhibition at 10 µM (SR) [%] | inhibition at 10 µM (ACHN) [%] | inhibition at 10 µM (SK-OV-3) [%] | other results
1 | CCN1C(=O)C(=CC(=O)OC)SC1=NNC(=O)c1cc2ccc1CCc1ccc(cc1)CC2 [Compound 3e] | 0 | 4.97 | 31.6 | 12.7 | 0 | 3.13 | 21 | 0 | 7.26 | 21.2 | 3.95 | 91.2 | 2.18 | 50.5 | 0.72 | 6.44 | 15.6 | 113 | 10.4 | 0 | inhibition at 10 µM (OVCAR-8): 7.42%; inhibition at 10 µM (LOX IMVI): 26.5%; inhibition at 10 µM (RPMI-8226): 114%; inhibition at 10 µM (NCI/ADR-RES): 13.5%; inhibition at 10 µM (NCI-H522): 40.3%; inhibition at 10 µM (IGROV1): 11.6%; inhibition at 10 µM (HOP-92): 18.4%; inhibition at 10 µM (KM12): 15%; inhibition at 10 µM (M14): 12.8%; inhibition at 10 µM (DU-145): 0%
2 | C=CCN1C(=O)C(=CC(=O)OC)SC1=NNC(=O)c1cc2ccc1CCc1ccc(cc1)CC2 [Compound 3d] | 0 | 13.1 | 33.1 | 23.7 | 3.9 | 6.42 | 24.6 | 0 | 8.89 | 21.9 | 2.27 | 55.5 | 0 | 46 | 0 | 9.16 | 18.2 | 98.2 | 12.2 | 0 | inhibition at 10 µM (OVCAR-8): 11.8%; inhibition at 10 µM (LOX IMVI): 21.2%; inhibition at 10 µM (RPMI-8226): 109%; inhibition at 10 µM (NCI/ADR-RES): 10.5%; inhibition at 10 µM (NCI-H522): 39.2%; inhibition at 10 µM (IGROV1): 10.8%; inhibition at 10 µM (HOP-92): 18.6%; inhibition at 10 µM (KM12): 18.4%; inhibition at 10 µM (M14): 21.1%; inhibition at 10 µM (DU-145): 0%
